Measurements taken from US10703748B2, “Diazanaphthalen-3-yl carboxamides and preparation and use thereof” (Samumed, LLC, priority 2017, dated 2020).

Assays:
[1] = test system: α-smooth muscle actin (aSMA) positive LL29 cells; assay: Inhibition of the fibrotic process: αSMA staining in TGF-β1 treated LL29 fibroblasts from IPF patients; details: Homo sapiens, Fibroblast; for EC50: 96 h; for inhibition at 10 µM: read-out: percentage in parentheses after EC50 >10
Method: Each compound was dissolved in DMSO as a 10 mM stock and used to prepare compound source plates. […] LL29 cells were plated at 1,500 cells/well in 70 μL/well F12 medium supplemented with 1% Fetal Bovine Serum. […] Wells treated with TGF-β1 and containing DMSO were used as positive control, and cells with only DMSO were negative control. Cells were incubated at 37° C. and 5% CO2 for 4 days. Following incubation for 4 days, SYTOX green nucleic acid stain (Life Technologies [Thermo Fisher Scientific]) was added to the wells at a final concentration of 1 μM and incubated at room temperature for 30 min. Cells were then fixed using 4% formaldehyde (Electron Microscopy Sciences), washed 3 times with PBS followed by blocking and permeabilization using 3% Bovine Serum Albumin (BSA; Sigma) and 0.3% Triton X-100 (Sigma) in PBS.

DYRK1A kinase = DYRK1A kinase (Homo sapiens, UniProt Q13627); assay: DYRK1A kinase activity (Ser/Thr 18 peptide Z-lyte FRET assay); format: biochemical; details: recombinant DYRK1A, 30 μM ATP, one hour at room temperature;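 also: kinase activity read as coumarin/fluorescein emission ratio after development step, with unphosphorylated and phosphorylated peptide forms setting 0% and 100% controls, values from dose-response curves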
[2] = test system: SW480 colon carcinoma cells; assay: Cell viability assay (CellTiter-Glo); details: Homo sapiens; for EC50: SW480, 96 h; for inhibition at 10 µM: SW480, read-out: percent inhibition at 10 μM
[3] = test system: Tau phosphorylation at Ser396 (pSer396); assay: Tau phosphorylation at Ser396 (pSer396) in SH-SY5Y cells, ELISA / western blot; format: cell-based, human; details: Homo sapiens; SH-SY5Y cells, overnight (16-18 h); read-out: pSer396 Tau EC50;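 also: decrease in pSer396 Tau measured in lysates of treated cells by colorimetric ELISA or chemiluminescent western blot, same pSer396 antibody for both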
Method: Two days before treatment, cells were seeded onto 96 well plates at 5×10^4 cells/well.
The above synthesized compounds were screened using the cell assay procedure to assess decrease Tau phosphorylation at Ser396 (pSer396) described below.
Cells were lysed with RIPA buffer complemented with phosphatase and protease inhibitors then lysates were spun down at 12,000 g for 10 min to remove any cellular debris.

[4] = test system: Wnt-responsive Sp5-Luc reporter in SW480 colon carcinoma cells; assay: Screening assay for Wnt activity (Sp5-Luc reporter gene assay); details: Homo sapiens; for EC50: SW480; for inhibition at 10 µM: SW480, read-out: percent inhibition at 10 μM
[5] = test system: secreted cytokines TNFα, IL-6 and KC-GRO; assay: Secreted cytokines in Lipopolysaccharide-stimulated BV-2 cells (Table 9 does not say which cytokine); format: cell-based, mouse; details: Mus musculus, BV-2, 5 h; read-out: EC50
Method: BV-2 cells (mouse microglial cells) were cultured in 1:1 DMEM medium supplemented with 10% FBS, and 1% penicillin/streptomycin.
BV-2 cells are plated at 35,000 cells/well in a volume of 100 μl for at least 4 hours before compounds are added. […] Compounds were added to cells overnight. […] Supernatant is removed and saved for further cytokine detection. The original plates with seeded cells were tested for cytotoxicity by measure of adenosine triphosphate (ATP) release by adding CellTiter-Glo® diluted 1:4 in distilled water (G7573, Promega) and transferring lysed cells to a completely black 96-well plate to be read with the Cytation3. Supernatant was then diluted 1:2 with a diluent from V-PLEX cytokine Kit and directly tested for the secreted cytokines TNFα, IL-6 and KC-GRO using electrochemiluminescence (Meso Scale Discovery). The standard curve for each cytokine was used to convert the electrochemiluminescent signal into pg of protein per mL.

IL-6 = IL-6 inhibition in LPS-stimulated human peripheral blood mononuclear cells (HTRF); details: Homo sapiens, PBMC; for EC50: 22 h; for inhibition at 10 µM: read-out: percentage in parentheses after EC50 >10
GSK3β kinase = GSK3β kinase (Homo sapiens, UniProt P49841); assay: GSK3β kinase activity (Ser/Thr 09 peptide Z-lyte FRET assay); format: biochemical; details: recombinant kinase, 46 μM ATP, one hour at room temperature; read-out: EC50
Chain of GSK3β kinase (P49841 whole entry): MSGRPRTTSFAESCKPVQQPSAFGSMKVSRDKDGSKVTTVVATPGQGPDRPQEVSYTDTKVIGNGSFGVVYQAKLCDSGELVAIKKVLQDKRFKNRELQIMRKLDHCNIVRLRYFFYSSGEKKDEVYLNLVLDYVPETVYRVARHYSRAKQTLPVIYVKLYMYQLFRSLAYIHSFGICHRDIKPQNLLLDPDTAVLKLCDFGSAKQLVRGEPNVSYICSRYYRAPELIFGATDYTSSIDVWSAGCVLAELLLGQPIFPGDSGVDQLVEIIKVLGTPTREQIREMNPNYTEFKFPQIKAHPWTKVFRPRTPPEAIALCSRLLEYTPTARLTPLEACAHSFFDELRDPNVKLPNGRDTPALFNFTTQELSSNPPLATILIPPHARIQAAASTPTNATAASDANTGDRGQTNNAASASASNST

EC50 (DYRK1A kinase) [nM] | EC50 [2] [nM] | EC50 [3] [nM] | EC50 [4] [nM] | EC50 [5] [nM] | EC50 (IL-6) [nM] | EC50 (GSK3β kinase) [nM] | SMILES | EC50 [1] [nM] | inhibition at 10 µM [2] [%] | inhibition at 10 µM [1] [%] | inhibition at 10 µM (IL-6) [%] | inhibition at 10 µM [4] [%]
12 | 3610 | 1000 | 1890 | 201 | 1020 | 68 | Cn1cc(-c2ccc3cnc(NC(=O)CC4CNCCO4)cc3n2)cn1 (stereo not shown) [Compound 86, N-(2-(1-Methyl-1H-pyrazol-4-yl)-1,6-naphthyridin-7-yl)-2-(morpholin-2-yl)acetamide] | 1890 |  |  |  | 
6 | > 10000 | 1700 | 1540 | 66 | 9090 | 84 | Cn1cc(-c2ccc3cnc(NC(=O)C4CCN(Cc5ncco5)CC4)cc3n2)cn1 [Compound 95, N-(2-(1-Methyl-1H-pyrazol-4-yl)-1,6-naphthyridin-7-yl)-1-(oxazol-2-ylmethyl)piperidine-4-carboxamide] | 444 | 38.6 |  |  | 
9 | > 10000 | 967 | 1310 | 177 | 8600 | 180 | Cn1cc(-c2ccc3cnc(NC(=O)C4CCN(Cc5ncccn5)CC4)cc3n2)cn1 [Compound 99, N-(2-(1-Methyl-1H-pyrazol-4-yl)-1,6-naphthyridin-7-yl)-1-(pyrimidin-2-ylmethyl)piperidine-4-carboxamide] | 4060 | 37 |  |  | 
88 | 7790 | 1100 | 3650 | 5400 | 9400 | 62 | CC(C(=O)Nc1cc2nc(-c3cnn(C)c3)ccc2cn1)N1CCCCC1 (stereo not shown) [Compound 112, N-(2-(1-Methyl-1H-pyrazol-4-yl)-1,6-naphthyridin-7-yl)-2-(piperidin-1-yl)propanamide] | > 10000 |  | 13.8 |  | 
16 | 3110 | 481 | 2540 | 590 | 3170 | 70 | CC(C)CN1CCC(CC(=O)Nc2cc3nc(-c4cnn(C)c4)ccc3cn2)C1 (stereo not shown) [Compound 122, 2-(1-Isobutylpyrrolidin-3-yl)-N-(2-(1-methyl-1H-pyrazol-4-yl)-1,6-naphthyridin-7-yl)acetamide] | 4020 |  |  |  | 
23 | 7620 | 3000 | 596 | 819 | 8940 | 17 | Cn1cc(-c2ccc3cnc(NC(=O)CCc4ccccc4)cc3n2)cn1 [Compound 194, N-(2-(1-Methyl-1H-pyrazol-4-yl)-1,6-naphthyridin-7-yl)-3-phenylpropanamide] | 935 |  |  |  | 
1 | 165 | 562 | 107 | 83 | 4250 | 48 | Cc1ncc(C(=O)Nc2cc3nc(-c4cnc(C)n4C)ccc3cn2)s1 [Compound 447, N-(2-(1,2-Dimethyl-1H-imidazol-5-yl)-1,6-naphthyridin-7-yl)-2-methylthiazole-5-carboxamide] | 517 |  |  |  | 
1 | 409 | 3760 | 279 | 3000 | 3510 | 350 | Cn1cncc1-c1ccc2cnc(NC(=O)c3cccc(CN4CCCC4)c3)cc2n1 [Compound 450, N-(2-(1-Methyl-1H-imidazol-5-yl)-1,6-naphthyridin-7-yl)-3-(pyrrolidin-1-ylmethyl)benzamide] | 517 |  |  |  | 
1 | 1690 | 10000 | 962 | 4800 | 9830 | 84 | Cn1cncc1-c1ccc2cnc(NC(=O)c3ccc4c(c3)CNC4)cc2n1 [Compound 477, N-(2-(1-Methyl-1H-imidazol-5-yl)-1,6-naphthyridin-7-yl)isoindoline-5-carboxamide] | 632 |  |  |  | 
4 | 814 | 3940 | 530 | 799 | > 10000 | 362 | CC(C)Oc1ccc(C(=O)Nc2cc3nc(-c4cnc5n4CCNC5)ccc3cn2)cc1 [Compound 523, 4-Isopropoxy-N-(2-(5,6,7,8-tetrahydroimidazo[1,2-a]pyrazin-3-yl)-1,6-naphthyridin-7-yl)benzamide] | 1630 |  |  | 3.7 | 
54 | > 10000 | 487 | > 10000 | 2200 | > 10000 | 86 | Cc1ncc(-c2ccc3cnc(NC(=O)[C@H]4C[C@H](N5CCOCC5)C4)cc3n2)o1 [Compound 556, trans-N-(2-(2-Methyloxazol-5-yl)-1,6-naphthyridin-7-yl)-3-morpholinocyclobutane-1-carboxamide] | > 10000 | 29.4 | 27.6 | 4.9 | 41.3
9 | 2690 | 374 | 2080 | 257 | > 10000 | 109 | Cc1cn2c(n1)CN(C(=O)Nc1cc3nc(-c4cnc(C)o4)ccc3cn1)CC2 [Compound 585, 2-Methyl-N-(2-(2-methyloxazol-5-yl)-1,6-naphthyridin-7-yl)-5,6-dihydroimidazo[1,2-a]pyrazine-7(8H)-carboxamide] | 2510 |  |  | 9.4 | 
3 | 3600 | 157 | 8810 | 106 | 1100 | 219 | O=C(Nc1cc2nc(-c3cncs3)ccc2cn1)[C@H]1CC[C@H](CN2CC(F)C2)CC1 [Compound 613, trans-4-((3-Fluoroazetidin-1-yl)methyl)-N-(2-(thiazol-5-yl)-1,6-naphthyridin-7-yl)cyclohexane-1-carboxamide] | 650 |  |  |  | 
29 | > 10000 | 7900 | 8610 | 542 | > 10000 | 1150 | Cc1ncc(-c2ccc3cnc(NC(=O)N4CCOCC4)cc3n2)s1 [Compound 634, N-(2-(2-Methylthiazol-5-yl)-1,6-naphthyridin-7-yl)morpholine-4-carboxamide] | 2130 | 41.2 |  | 13 | 
38 | > 10000 | 877 | > 10000 | 504 | 7340 | 401 | Cc1ncc(-c2ccc3cnc(NC(=O)C4CCN(C)CC4)cc3n2)s1 [Compound 640, 1-Methyl-N-(2-(2-methylthiazol-5-yl)-1,6-naphthyridin-7-yl)piperidine-4-carboxamide] | 671 | 40.4 |  |  | 42.9
8 | > 10000 | 807 | > 10000 | 5100 | > 10000 | 243 | O=C(Nc1cc2nc(-c3cccnc3)ccc2cn1)C1CC1 [Compound 764, N-(2-(Pyridin-3-yl)-1,6-naphthyridin-7-yl)cyclopropanecarboxamide] | > 10000 | 24.7 | 5.8 | 4.3 | 27.5
13 | > 10000 | 372 | > 10000 | 1900 | 4860 | 25 | Cn1cc(-c2ccc3cnc(NC(=O)C4CC4)nc3c2)cn1 [Compound 909, N-(7-(1-Methyl-1H-pyrazol-4-yl)quinazolin-2-yl)cyclopropanecarboxamide] | 1380 | 45.6 |  |  | 56.1
62 | > 10000 | > 10000 | > 10000 | > 10000 | > 10000 | 236 | Cn1cc(-c2ccc3cnc(NC(=O)C4CCNCC4)nc3c2)cn1 [Compound 918, N-(7-(1-methyl-1H-pyrazol-4-yl)quinazolin-2-yl)piperidine-4-carboxamide] | > 10000 | 10.2 | 31.2 | 14.6 | 5
44 | > 10000 | 1300 | > 10000 | 1070 | > 10000 | 204 | CC(C)CN1CCC(C(=O)Nc2ncc3ccc(-c4cnn(C)c4)cc3n2)CC1 [Compound 923, 1-isobutyl-N-(7-(1-methyl-1H-pyrazol-4-yl)quinazolin-2-yl)piperidine-4-carboxamide] | 2720 | 33.9 |  | 10.5 | 34.8
